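Method: 48-hour compound exposure of cells in 96-well plates, five concentrations, linear interpolation of endpoints. GI50 is the concentration that inhibits growth by half. TGI is the concentration that stops growth completely.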
Key:
Test in all cases: NCI-60 cell line screen, 48 h
[1] = system: 786-0 renal
[2] = system: A498 renal
[3] = system: A549 NSCLC
[4] = system: ACHN renal
[5] = system: BT-549 breast
[6] = system: CAKI-1 renal
[7] = system: CCRF-CEM leukemia
[8] = system: COLO 205 colon
[9] = system: DU-145 prostate
[10] = system: EKVX NSCLC
[11] = system: HCC-2998 colon
[12] = system: HCT-116 colon
[13] = system: HCT-15 colon
[14] = system: HL-60(TB) leukemia
[15] = system: HOP-62 NSCLC
[16] = system: HOP-92 NSCLC
[17] = system: HS 578T breast
[18] = system: HT29 colon
[19] = system: IGROV1 ovarian
[20] = system: K-562 leukemia
[21] = system: KM12 colon
[22] = system: M14 melanoma
[23] = system: MALME-3M melanoma
[24] = system: MDA-MB-231 breast
[25] = system: MDA-MB-435
[26] = system: MOLT-4 leukemia
[27] = system: NCI-H226 lung
[28] = system: NCI-H23 lung
[29] = system: NCI-H460 lung
[30] = system: NCI-H522 lung
[31] = system: NCI/ADR-RES ovarian
[32] = system: OVCAR-3 ovarian
[33] = system: OVCAR-4 ovarian
[34] = system: OVCAR-5 ovarian
[35] = system: OVCAR-8 ovarian
[36] = system: PC-3 prostate
[37] = system: RXF 393 renal
[38] = system: SF-268 CNS
[39] = system: SF-295 CNS
[40] = system: SF-539 CNS
[41] = system: SK-MEL-2 melanoma
[42] = system: SK-MEL-28 melanoma
[43] = system: SK-MEL-5 melanoma
[44] = system: SK-OV-3 ovarian
[45] = system: SN12C renal
[46] = system: SNB-19 CNS
[47] = system: SNB-75 CNS
[48] = system: SR leukemia
[49] = system: SW-620 colon
[50] = system: T-47D breast
[51] = system: TK-10 renal
[52] = system: U251 CNS
[53] = system: UACC-257 melanoma
[54] = system: UACC-62 melanoma
[55] = system: UO-31 renal

CC(=O)Nc1cccc(Nc2nc(N[C@@H](C)c3ccccc3)c3ccccc3n2)c1
GI50 [1]: 630 nM
TGI [1]: 4.28 µM
GI50 [2]: 278 nM
TGI [2]: 1500 nM
GI50 [3]: 601 nM
TGI [3]: 5.97 µM
GI50 [4]: 672 nM
TGI [4]: 6.9 µM
GI50 [5]: 3.62 µM
TGI [5]: 18.7 µM
GI50 [6]: 374 nM
TGI [6]: 2770 nM
GI50 [7]: 372 nM
GI50 [8]: 625 nM
TGI [8]: 4.34 µM
GI50 [9]: 651 nM
TGI [9]: 6.4 µM
GI50 [10]: 656 nM
TGI [10]: 16.5 µM
GI50 [11]: 982 nM
TGI [11]: 2530 nM
GI50 [12]: 459 nM
TGI [12]: 1940 nM
GI50 [13]: 355 nM
TGI [13]: 1910 nM
GI50 [14]: 303 nM
TGI [14]: 868 nM
GI50 [15]: 808 nM
TGI [15]: 7.08 µM
GI50 [16]: 373 nM
TGI [16]: 4.94 µM
GI50 [17]: 361 nM
TGI [17]: 2510 nM
GI50 [18]: 362 nM
TGI [18]: 5.05 µM
GI50 [19]: 507 nM
TGI [19]: 2950 nM
GI50 [20]: 270 nM
TGI [20]: > 100 µM
GI50 [21]: 439 nM
TGI [21]: 6.45 µM
GI50 [22]: 401 nM
TGI [22]: 1610 nM
GI50 [23]: 470 nM
TGI [23]: 1900 nM
GI50 [24]: 942 nM
TGI [24]: 3.6 µM
GI50 [25]: 169 nM
TGI [25]: 419 nM
GI50 [26]: 491 nM
TGI [26]: 6.82 µM
GI50 [27]: 738 nM
TGI [27]: 21.6 µM
GI50 [28]: 387 nM
TGI [28]: 2690 nM
GI50 [29]: 356 nM
TGI [29]: 2100 nM
GI50 [30]: 322 nM
TGI [30]: 2180 nM
GI50 [31]: 464 nM
TGI [31]: 4.75 µM
GI50 [32]: 359 nM
TGI [32]: 1540 nM
GI50 [33]: 784 nM
TGI [33]: 11.8 µM
GI50 [34]: 1390 nM
TGI [34]: 11.6 µM
TGI [35]: 9.3 µM
GI50 [36]: 408 nM
TGI [36]: 11.4 µM
GI50 [37]: 154 nM
TGI [37]: 581 nM
GI50 [38]: 571 nM
TGI [38]: 3.28 µM
GI50 [39]: 377 nM
TGI [39]: 1560 nM
GI50 [40]: 318 nM
TGI [40]: 1140 nM
GI50 [41]: 832 nM
TGI [41]: 6.01 µM
GI50 [42]: 1000 nM
TGI [42]: 2430 nM
GI50 [43]: 292 nM
TGI [43]: 1070 nM
GI50 [44]: 679 nM
TGI [44]: 15.2 µM
GI50 [45]: 608 nM
TGI [45]: 2860 nM
GI50 [46]: 500 nM
TGI [46]: 12.6 µM
GI50 [47]: 194 nM
TGI [47]: 820 nM
GI50 [48]: 253 nM
TGI [48]: 2580 nM
GI50 [49]: 425 nM
TGI [49]: 5.28 µM
GI50 [50]: 512 nM
TGI [50]: 6.47 µM
GI50 [51]: 6.69 µM
TGI [51]: 21.2 µM
GI50 [52]: 525 nM
TGI [52]: 2900 nM
GI50 [53]: 1180 nM
TGI [53]: 3.43 µM
GI50 [54]: 380 nM
TGI [54]: 1930 nM
GI50 [55]: 697 nM
TGI [55]: 2330 nM

From PubChem BioAssay (NCI)
